Where two headings read alike, the source gives them in different places.
Tests used:
H1R = biological target: T1, H1R (Cavia porcellus, UniProt P31389); test: Ex vivo screening of histamine H1R antagonists on guinea pig ileum, variant with 0.05 μM atropine; conditions: isolated guinea pig ileum, histamine as agonist
T1 construct: from tissue; host or cells: isolated distal ileum of male guinea pigs
Experimental: The second histamine receptor located in the guinea pig ileum is H1R. […] The H1R antagonistic effect was measured on isolated guinea pig ileum stimulated to contract by histamine.[37] To assess and exclude the influence of the ADS compounds on muscarinic receptors, two test variations were used: one with the addition of 0.05 μM atropine and one without.
Male guinea pigs, weighing 300–400 g, were euthanized by a blow to the neck. A 20–30 cm length of the distal ileum, apart from the terminal 5 cm, was rapidly removed and placed in phosphate buffer at room temperature (pH 7.4) containing (mM) NaCl (136.9), KCl (2.6), KH2PO4 (1.47), Na2HPO4 (9.58), and indomethacin (1 × 10^–6 mol/L). The intraluminal content was rinsed, and the isolated intestine was cut into 1.5–2 cm segments. The preparations were mounted isotonically in a 20 mL organ bath filled with Krebs buffer: composition (mM) NaCl (118), KCl (5.6), MgSO4 (1.18), CaCl2 (2.5), NaH2PO4·H2O (1.28), NaHCO3 (25), glucose (5.55), and indomethacin (3 × 10^–7 mol/L). […] The solution was continuously bubbled with a 95% O2:5% CO2 mixture and maintained at 37 °C under a constant load of 0.5 g (Hugo Sachs Hebel–Messvorsatz (Tl-2)/HF-modem; Hugo Sachs Elektronik, Hugstetten, Germany) connected to a pen recorder (Kipp & Zonen BD41, Delft, Holland). During an equilibration period of 40 min, Krebs buffer was changed every 10 min. The first cumulative concentration–response curve was determined for histamine (10 nM to 10 mM) at increasing concentrations spaced by 3- or 3.3-fold. The second to the fourth (or fifth) curves were measured in the presence of an increasing concentrations of antagonist (incubation time 10 min). The pA2 values were calculated according to Arunlakshana and Schild.[37] Statistical analysis was carried out with the Students’ t test. In all tests, a p < 0.05 was considered statistically significant.

hM3R = biological target: T2, hM3R (Homo sapiens, UniProt P20309); test: hM3R radioligand binding ([3H]NMS, CHO cell membranes)
T2 construct: host or cells: CHO cells, stably transfected; crude membranes
T2 sequence (P20309 whole entry): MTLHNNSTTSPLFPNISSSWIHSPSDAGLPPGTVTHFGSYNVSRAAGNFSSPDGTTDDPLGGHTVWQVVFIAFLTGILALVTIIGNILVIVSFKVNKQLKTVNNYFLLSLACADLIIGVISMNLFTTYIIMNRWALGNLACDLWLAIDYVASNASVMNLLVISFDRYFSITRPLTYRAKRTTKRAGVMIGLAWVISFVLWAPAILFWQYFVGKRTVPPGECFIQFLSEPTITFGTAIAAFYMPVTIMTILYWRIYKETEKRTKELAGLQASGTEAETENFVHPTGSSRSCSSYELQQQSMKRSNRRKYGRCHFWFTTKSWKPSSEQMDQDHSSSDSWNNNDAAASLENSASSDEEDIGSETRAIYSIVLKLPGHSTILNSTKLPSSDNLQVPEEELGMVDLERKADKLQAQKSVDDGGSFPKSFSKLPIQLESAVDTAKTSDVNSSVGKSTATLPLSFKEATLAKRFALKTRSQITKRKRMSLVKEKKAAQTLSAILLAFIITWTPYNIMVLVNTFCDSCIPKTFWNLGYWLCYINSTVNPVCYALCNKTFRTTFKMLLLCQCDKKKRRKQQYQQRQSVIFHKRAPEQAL
Experimental: To clearly explain the obtained outcome, we engaged the radioligand binding experiment. The hM1–hM5 radioligand binding experiments were performed in the membrane fractions of Chinese hamster ovary cells (CHO) stably expressing human variants of muscarinic receptors. N-[^3H]Methylscopolamine was used as the radiolabeled ligand.[39] Three compounds were selected from ex vivo screening on guinea pig ileum. […] This compound is also not completely selective for the remaining muscarinic receptor subtypes with −log Ki values over 6. […] It is also a potent muscarinic M1R antagonist, and the M1R/M2R selectivity ratio is <10. It is worth noting that such nonspecific anticholinergics are often associated with neuropsychiatric and cognitive disturbances and that nonselective muscarinic M1R/M2R antagonists, such as scopolamine, can produce cognitive deficits. Further structural modifications of ADS10227 should be used to increase selectivity toward the M2R, as these may present fewer potential side effects associated with the activation of the phospholipase C signaling pathway.
The culture was derived from CHO cells stably transfected with the genes of human variants of muscarinic receptors. These were purchased from Missouri S&T cDNA Resource Center (Rolla, MO, USA). Cell cultures and crude membranes were prepared as described previously.[45] […]
All radioligand binding experiments were optimized and carried out according to general guidelines.[39] […] N-Methylscopolamine binding was measured directly in saturation experiments using six concentrations (30–1000 pM) of [^3H]NMS during incubation for 1 h (M2R), 3 h (M1R, M3R, and M4R), or 5 h (M5R). For calculations of the equilibrium dissociation constant (KD), concentrations of free [^3H]NMS were calculated by subtraction of bound radioactivity from total radioactivity in the sample and fitting eq 1 (Experimental Data analysis section). The binding of the tested ligands was determined in competition experiments with 100 pM [^3H]NMS. […] Nonspecific binding was determined in the presence of 1 μM unlabeled atropine. […]

[1] = read-out: H1R+atropine pA2 gpi ± sem (converted)
[2] = read-out: hM3R -log(Ki) ± sem (converted)

T1 sequence (P31389 whole entry): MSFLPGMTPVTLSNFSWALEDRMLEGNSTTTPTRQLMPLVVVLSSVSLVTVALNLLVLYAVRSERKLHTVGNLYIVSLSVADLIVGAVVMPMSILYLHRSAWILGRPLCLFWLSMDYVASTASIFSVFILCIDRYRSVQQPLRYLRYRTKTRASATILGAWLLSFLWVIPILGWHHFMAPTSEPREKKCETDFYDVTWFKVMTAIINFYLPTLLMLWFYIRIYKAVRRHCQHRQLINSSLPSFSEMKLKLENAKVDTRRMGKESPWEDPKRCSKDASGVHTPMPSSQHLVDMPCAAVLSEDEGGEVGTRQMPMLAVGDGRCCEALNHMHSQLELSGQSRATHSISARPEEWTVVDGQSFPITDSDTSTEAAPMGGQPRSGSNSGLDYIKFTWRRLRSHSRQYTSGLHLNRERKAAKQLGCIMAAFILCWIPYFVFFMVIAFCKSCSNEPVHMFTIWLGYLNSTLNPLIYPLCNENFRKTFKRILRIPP

SMILES | Kb (H1R; [1]) [nM] | Ki (hM3R; [2]) [nM] | Kb (H1R; H1R+atropine pA2 gpi ± sem) [nM] | Ki (hM3R; hM3R -log(Ki) ± sem) [nM]
[H]/N=C(/N)N(CCCCN1CCN(CC2CCC(COc3ccccc3)CC2)CC1)Cc1ccc(C(F)(F)F)cc1 (stereo not drawn) [ADS10239] | 151 | 123 | – | –
N=C(N)N(CCCCN1CCN(C[C@H]2CC[C@@H](COc3ccccc3)CC2)CC1)Cc1ccccc1 [ADS10227, 1-{4-{4-{[4-(phenoxymethyl)cyclohexyl]methyl}piperazin-1-yl}but-1-yl}-1-(benzyl)guanidine] | 257 | 51.3 | – | –
N=C(N)N(CCCCN1CCN(CCCCCCCOc2ccccc2)CC1)Cc1ccccc1 [ADS1017] | – | – | 251 | 347

Reference: article PMC8291587, “Guanidine Derivatives: How Simple Structural Modification of Histamine H3R Antagonists Has Led to the Discovery of Potent Muscarinic M2R/M4R Antagonists” (ACS Chemical Neuroscience, 2021)
